ChEMBL document CHEMBL1124960, “Histamine H3 ligands: just pharmacological tools or potential therapeutic agents?” (J Med Chem, 1990)

Columns and labels:
Rattus norvegicus [1] = species on record: Rattus norvegicus; experiment: Histamine level after treatment was determined in spleen; assay type: functional
Rattus norvegicus [2] = species on record: Rattus norvegicus; experiment: Histamine level after treatment was determined in adbominal skin.; assay type: functional
Rattus norvegicus [3] = species on record: Rattus norvegicus; experiment: Histamine level after treatment was determined in hypothalamus.; assay type: functional
Rattus norvegicus [4] = species on record: Rattus norvegicus; experiment: (§1) Histamine level after treatment was determined in colon.; assay type: functional
Rattus norvegicus [5] = species on record: Rattus norvegicus; experiment: Histamine level after treatment was determined in cerebral cortex; assay type: functional
[6] = target: Histamine H3 receptor (Rattus norvegicus) (UniProt Q9QYN8); experiment: Evaluated for antagonist activity against histamine H3 receptor and represented as KB.; assay type: functional
Target sequence in this assay (Q9QYN8 whole entry): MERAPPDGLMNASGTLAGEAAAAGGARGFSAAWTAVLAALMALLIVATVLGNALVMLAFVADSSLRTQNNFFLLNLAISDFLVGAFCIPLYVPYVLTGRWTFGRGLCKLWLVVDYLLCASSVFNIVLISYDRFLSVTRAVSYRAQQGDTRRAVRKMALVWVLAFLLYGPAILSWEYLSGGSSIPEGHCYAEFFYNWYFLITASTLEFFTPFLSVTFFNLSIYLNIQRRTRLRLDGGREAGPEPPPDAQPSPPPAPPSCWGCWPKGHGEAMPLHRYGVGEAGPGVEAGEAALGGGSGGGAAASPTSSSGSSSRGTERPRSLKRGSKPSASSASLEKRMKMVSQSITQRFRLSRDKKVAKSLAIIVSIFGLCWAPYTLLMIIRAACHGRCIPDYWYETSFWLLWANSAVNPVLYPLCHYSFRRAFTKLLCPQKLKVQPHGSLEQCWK

[7] = target: Histamine H3 receptor (Rattus norvegicus) (UniProt Q9QYN8); experiment: Evaluated for antagonist activity against histamine H3 receptor and represented as KB; assay type: functional
Target sequence in this assay (Q9QYN8 whole entry): as above

Rattus norvegicus [8] = species on record: Rattus norvegicus; experiment: Histamine level after treatment was determined for both agents (R-alpha-methylhistamine, thioperamide) in hypothalamus.; assay type: functional
Rattus norvegicus [9] = species on record: Rattus norvegicus; experiment: Histamine level after treatment was determined for both agents (R-alpha-methylhistamine, thioperamide) in lung.; assay type: functional
Rattus norvegicus [10] = species on record: Rattus norvegicus; experiment: Histamine level after treatment was determined for both agents (R-alpha-methylhistamine, thioperamide) in cerebral cortex; assay type: functional
Rattus norvegicus [11] = species on record: Rattus norvegicus; experiment: Histamine level after treatment was determined for both agents (R-alpha-methylhistamine, thioperamide) in; assay type: functional
Rattus norvegicus [12] = species on record: Rattus norvegicus; experiment: Histamine level after treatment was determined for both agents (R-alpha-methylhistamine, thioperamide) in spleen; assay type: functional
Rattus norvegicus [13] = species on record: Rattus norvegicus; experiment: Histamine level after treatment was determined for both agents (R-alpha-methylhistamine, thioperamide) in adbominal skin.; assay type: functional
[14] = target: Histamine H2 receptor (Cavia porcellus) (UniProt P47747); experiment: Evaluated for agonistic (intrinsic) activity at histamine H2 receptor of guinea pig atrium and is represented as intrinsic activity; assay type: functional, tissue-based; conditions: Cardiac atrium
Histamine H2 receptor (Cavia porcellus), sequence (P47747 whole entry): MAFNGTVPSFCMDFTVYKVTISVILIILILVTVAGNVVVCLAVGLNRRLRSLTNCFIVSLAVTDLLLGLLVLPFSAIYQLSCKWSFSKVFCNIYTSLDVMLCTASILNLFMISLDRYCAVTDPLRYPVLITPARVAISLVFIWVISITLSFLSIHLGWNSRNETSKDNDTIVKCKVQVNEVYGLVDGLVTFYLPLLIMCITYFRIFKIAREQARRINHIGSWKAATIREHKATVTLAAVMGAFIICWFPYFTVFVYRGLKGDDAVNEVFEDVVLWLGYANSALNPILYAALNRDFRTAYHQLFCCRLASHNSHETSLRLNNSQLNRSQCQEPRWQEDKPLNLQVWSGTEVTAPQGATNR

[15] = target: Histamine H2 receptor (Cavia porcellus) (UniProt P47747); experiment: Evaluated for agonistic activity at histamine H2 receptor of guinea pig atrium and is represented as potency; assay type: functional, tissue-based; conditions: Cardiac atrium
Rattus norvegicus [16] = species on record: Rattus norvegicus; experiment: Relative inhibition of [3H]histamine release from pre-loaded slices of rat cerebral cortex; assay type: functional
[17] = target: Histamine H2 receptor (Cavia porcellus) (UniProt P47747); experiment: Evaluated for activity at Histamine H2 receptor in guinea pig ileum; assay type: tissue-based
[18] = target: Histamine H1 receptor (Cavia porcellus) (UniProt P31389); experiment: Evaluated for activity at Histamine H1 receptor in guinea pig ileum; assay type: tissue-based
Histamine H1 receptor (Cavia porcellus), sequence (P31389 whole entry): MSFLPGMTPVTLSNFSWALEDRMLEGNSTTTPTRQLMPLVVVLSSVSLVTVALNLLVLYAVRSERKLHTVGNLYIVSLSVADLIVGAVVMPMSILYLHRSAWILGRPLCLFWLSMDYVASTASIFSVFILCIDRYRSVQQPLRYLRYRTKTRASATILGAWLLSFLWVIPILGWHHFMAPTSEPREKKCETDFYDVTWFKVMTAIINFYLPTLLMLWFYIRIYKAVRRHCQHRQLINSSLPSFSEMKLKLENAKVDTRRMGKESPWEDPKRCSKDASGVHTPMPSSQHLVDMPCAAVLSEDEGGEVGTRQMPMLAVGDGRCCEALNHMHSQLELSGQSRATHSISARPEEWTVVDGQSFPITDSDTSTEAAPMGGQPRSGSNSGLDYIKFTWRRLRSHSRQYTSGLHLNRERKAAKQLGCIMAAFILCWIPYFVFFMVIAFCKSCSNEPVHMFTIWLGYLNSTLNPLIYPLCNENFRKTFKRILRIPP

Rattus norvegicus [19] = species on record: Rattus norvegicus; experiment: Evaluated for inhibition of [3H]histamine release from preloaded slices and is represented as pD2.; assay type: functional
Rattus norvegicus [20] = species on record: Rattus norvegicus; experiment: Evaluated for [3H]-HA release at a frequency 10 Hz for 2 min at a concentration 10 E -5M; assay type: functional
[21] = target: Histamine H2 receptor (Cavia porcellus) (UniProt P47747); experiment: Evaluated for activity against histamine H2 receptor in guinea pig gastric secretion and represented as intrinsic activity; conditions: Stomach
Rattus norvegicus [22] = species on record: Rattus norvegicus; experiment: Evaluated for [3H]HA release at a frequency 10 Hz for 2 min at a concentration 10 E -7M; assay type: functional
Rattus norvegicus [23] = species on record: Rattus norvegicus; experiment: Evaluated for [3H]HA release at a frequency 33.3 Hz for 2 min at a concentration 10 E -5M.; assay type: functional
Rattus norvegicus [24] = species on record: Rattus norvegicus; experiment: Evaluated for [3H]HA release at a frequency 10 Hz for 2 min at a concentration 10 E -6M; assay type: functional
[25] = target: Histamine H2 receptor (Cavia porcellus) (UniProt P47747); experiment: Evaluated for activity against histamine H2 receptor in guinea pig gastric secretion and represented as alpha; assay type: tissue-based; conditions: Stomach
Rattus norvegicus [26] = species on record: Rattus norvegicus; experiment: Evaluated for [3H]-HA release at a frequency 33.3 Hz for 2 min at a concentration 10 E -6M.; assay type: functional
Rattus norvegicus [27] = species on record: Rattus norvegicus; experiment: Evaluated for [3H]HA release at a frequency 20 Hz for 2 min at a concentration 10 E -6M; assay type: functional
Rattus norvegicus [28] = species on record: Rattus norvegicus; experiment: Evaluated for [3H]HA release at a frequency 20 Hz for 2 min at a concentration 10 E -5M; assay type: functional
[29] = target: Histamine H1 receptor (Cavia porcellus) (UniProt P31389); experiment: Evaluated for their activity at histamine H1 receptor in guinea pig ileum.; assay type: tissue-based
Rattus norvegicus [30] = species on record: Rattus norvegicus; experiment: Evaluated for [3H]HA release at a frequency 20 Hz for 2 min at a concentration 10 E -7M; assay type: functional
Rattus norvegicus [31] = species on record: Rattus norvegicus; experiment: Evaluated for [3H]HA release at a frequency 2 Hz for 2.5 min at a concentration 10 E -6M; assay type: functional
[32] = target: Histamine H2 receptor (Cavia porcellus) (UniProt P47747); experiment: Evaluated for antagonist activity against histamine H2 receptor and represented as KB.; assay type: functional
Rattus norvegicus [33] = species on record: Rattus norvegicus; experiment: as §1; assay type: functional; remark: listed apart in the source
[34] = target: Histamine H2 receptor (Cavia porcellus) (UniProt P47747); experiment: Evaluated for activity against histamine H2 receptor in guinea pig atrium and represented as alpha; assay type: tissue-based; conditions: Cardiac atrium
[35] = target: Histamine H2 receptor (Cavia porcellus) (UniProt P47747); experiment: Evaluated for activity against histamine H2 receptor in guinea pig gastric secretion and represented as pD2; assay type: tissue-based; conditions: Stomach
[36] = target: Histamine H3 receptor (Rattus norvegicus) (UniProt Q9QYN8); experiment: Evaluated for activity against H3 receptor and represented as %recovery histamine release at a concentration 5 x 10 E -6M
Target sequence in this assay (Q9QYN8 whole entry, looked up): as the sequence (Q9QYN8 whole entry) above

[37] = target: Histamine H2 receptor (Cavia porcellus) (UniProt P47747); experiment: Evaluated for activity against histamine H2 receptor in guinea pig atrium and represented as intrinsic activity; conditions: Cardiac atrium
Histamine H3 receptor [38] = target: T1, Histamine H3 receptor (Rattus norvegicus, UniProt Q9QYN8); experiment: Evaluated for antagonist activity against histamine H3 receptor and is represented as -log Ki.; assay type: functional
T1 sequence (Q9QYN8 whole entry): as above

[39] = target: Histamine H1 receptor (Cavia porcellus) (UniProt P31389); experiment: Evaluated for antagonist activity against histamine H1 receptor and represented as KB; assay type: functional
Histamine H3 receptor [40] = target: T1, Histamine H3 receptor; experiment: (§2) Evaluated for antagonist activity against Histamine H3 receptor and represented as KB.; assay type: functional
Rattus norvegicus [41] = species on record: Rattus norvegicus; experiment: Evaluated for inhibition of [3H]histamine release from preloaded slices and is represented as pD2; assay type: functional
[42] = target: Histamine H3 receptor (Cavia porcellus) (UniProt Q9JI35); experiment: as §2; assay type: functional
Histamine H3 receptor (Cavia porcellus), sequence (Q9JI35 whole entry): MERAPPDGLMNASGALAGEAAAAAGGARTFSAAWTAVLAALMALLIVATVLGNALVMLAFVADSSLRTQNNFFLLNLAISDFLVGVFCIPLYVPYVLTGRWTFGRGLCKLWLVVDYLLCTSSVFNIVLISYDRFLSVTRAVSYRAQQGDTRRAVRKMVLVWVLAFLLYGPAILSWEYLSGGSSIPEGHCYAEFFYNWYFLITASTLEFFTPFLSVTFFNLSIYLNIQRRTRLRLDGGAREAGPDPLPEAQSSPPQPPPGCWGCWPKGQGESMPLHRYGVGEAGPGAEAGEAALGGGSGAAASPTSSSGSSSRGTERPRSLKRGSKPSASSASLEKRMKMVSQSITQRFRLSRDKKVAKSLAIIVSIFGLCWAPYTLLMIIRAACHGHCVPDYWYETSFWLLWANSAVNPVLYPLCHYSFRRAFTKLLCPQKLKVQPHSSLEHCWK

Structure (SMILES): S=C(NC1CCCCC1)N1CCC(c2cnc[nH]2)CC1 [THIOPERAMIDE]
- Histamine level (Rattus norvegicus [1]): 123
- Histamine level (Rattus norvegicus [2]): 75
- Histamine level (Rattus norvegicus [3]): 245
- Histamine level (Rattus norvegicus [4]): 80
- Histamine level (Rattus norvegicus [5]): 234

Structure (SMILES): CN/C(=N\CCSCc1nc[nH]c1C)NC#N
- KB [6]: 33 µM

Structure (SMILES): CN(C)CC[C@@H](c1ccc(Cl)cc1)c1ccccn1
- KB [7]: > 58 nM

Structure (SMILES): C[C@@H](N)Cc1c[nH]cn1.S=C(NC1CCCCC1)N1CCC(c2c[nH]cn2)CC1
- Histamine level (Rattus norvegicus [8]): 205
- Histamine level (Rattus norvegicus [9]): 143
- Histamine level (Rattus norvegicus [10]): 196
- Histamine level (Rattus norvegicus [11]): 75
- Histamine level (Rattus norvegicus [12]): 96
- Histamine level (Rattus norvegicus [13]): 73

Structure (SMILES): Cc1nc[nH]c1CSCCN/C(N)=N/C(C)Cc1c[nH]cn1 (configuration not stated)
- Activity [14]: 0.8
- pD2 [15]: 6.48

Structure (SMILES): CNCCc1cnc[nH]1
- Ratio_EC50 (Rattus norvegicus [16]): 270
- Activity [17]: 74
- Activity [18]: 72
- pD2 (Rattus norvegicus [19]): 8.7

Structure (SMILES): Cc1[nH]cnc1CSCCNC(=N)NCCCc1c[nH]cn1 [IMPROMIDINE]
- HA release (Rattus norvegicus [20]): 25.5
- intrinsic activity [21]: 1
- HA release (Rattus norvegicus [22]): 25.3
- HA release (Rattus norvegicus [23]): 38.4
- HA release (Rattus norvegicus [24]): 25.9
- H2 activity [25]: 1
- HA release (Rattus norvegicus [26]): 39.5
- HA release (Rattus norvegicus [27]): 35.5
- HA release (Rattus norvegicus [28]): 35.1
- Activity [29]: < 0.001
- HA release (Rattus norvegicus [30]): 31.2
- HA release (Rattus norvegicus [31]): 14.3

Structure (SMILES): CNC(=S)NCCSCc1[nH]cnc1C
- KB [32]: 920 nM
- KB [6]: 2.5 µM

Structure (SMILES): C[C@@H](N)Cc1c[nH]cn1
- Histamine level (Rattus norvegicus [1]): 69
- Histamine level (Rattus norvegicus [33]): 81
- Ratio_EC50 (Rattus norvegicus [16]): 1550
- Histamine level (Rattus norvegicus [2]): 65
- Histamine level (Rattus norvegicus [3]): 85
- Activity [17]: 1.02
- Activity [18]: 0.49
- Histamine level (Rattus norvegicus [5]): 68

Structure (SMILES): CC(C)Cc1ccc(CSCC/N=C(\N)NCCCc2c[nH]cn2)o1
- pD2 [25]: 8.5
- Activity [34]: 0.9
- pD2 [35]: 7.8
- Release [36]: 100%
- intrinsic activity [37]: 0.9

Structure (SMILES): O=C(CCCC1CCCCC1)NCCc1cnc[nH]1
- Ki (Histamine H3 receptor [38]): 50.1 nM

Structure (SMILES): COc1ccc(CN(CCN(C)C)c2ccccn2)cc1
- KB [39]: 440 pM
- KB [7]: > 58 nM

Structure (SMILES): O=C(CCCc1ccccn1)NCCc1c[nH]cn1
- Ki (Histamine H3 receptor [40]): 1000 nM

Structure (SMILES): Cc1ncc(CCN)[nH]1 [2-METHYLHISTAMINE]
- Ratio_EC50 (Rattus norvegicus [16]): <0.008
- Activity [17]: 4.4
- Activity [18]: 16.5

Structure (SMILES): CC(C)NCCc1c[nH]cn1
- pD2 (Rattus norvegicus [41]): <5.5

Structure (SMILES): O=C(CCCc1ccccc1)NCCc1cnc[nH]1
- Ki (Histamine H3 receptor [40]): 79.4 nM

Structure (SMILES): CNC(=C[N+](=O)[O-])NCCSCc1ccc(CN(C)C)o1
- KB [42]: 1.2 µM

Structure (SMILES): CN(C)CC[C@H](c1ccc(Cl)cc1)c1ccccn1
- KB [6]: > 0.058 µM
